According to ChEMBL document CHEMBL1201862, “PubChem BioAssay data set” (2004):
Activity calls are given as the source filed them.

Legend:
[1] = target: T1, Replicative DNA helicase DnaB (Mycobacterium tuberculosis, UniProt P9WMR3); assay: DnaB intein splicing inhibitors, dose response, biochemical, cell-free fluorescence (AID 449749); type: functional
T1 sequence (P9WMR3 whole entry): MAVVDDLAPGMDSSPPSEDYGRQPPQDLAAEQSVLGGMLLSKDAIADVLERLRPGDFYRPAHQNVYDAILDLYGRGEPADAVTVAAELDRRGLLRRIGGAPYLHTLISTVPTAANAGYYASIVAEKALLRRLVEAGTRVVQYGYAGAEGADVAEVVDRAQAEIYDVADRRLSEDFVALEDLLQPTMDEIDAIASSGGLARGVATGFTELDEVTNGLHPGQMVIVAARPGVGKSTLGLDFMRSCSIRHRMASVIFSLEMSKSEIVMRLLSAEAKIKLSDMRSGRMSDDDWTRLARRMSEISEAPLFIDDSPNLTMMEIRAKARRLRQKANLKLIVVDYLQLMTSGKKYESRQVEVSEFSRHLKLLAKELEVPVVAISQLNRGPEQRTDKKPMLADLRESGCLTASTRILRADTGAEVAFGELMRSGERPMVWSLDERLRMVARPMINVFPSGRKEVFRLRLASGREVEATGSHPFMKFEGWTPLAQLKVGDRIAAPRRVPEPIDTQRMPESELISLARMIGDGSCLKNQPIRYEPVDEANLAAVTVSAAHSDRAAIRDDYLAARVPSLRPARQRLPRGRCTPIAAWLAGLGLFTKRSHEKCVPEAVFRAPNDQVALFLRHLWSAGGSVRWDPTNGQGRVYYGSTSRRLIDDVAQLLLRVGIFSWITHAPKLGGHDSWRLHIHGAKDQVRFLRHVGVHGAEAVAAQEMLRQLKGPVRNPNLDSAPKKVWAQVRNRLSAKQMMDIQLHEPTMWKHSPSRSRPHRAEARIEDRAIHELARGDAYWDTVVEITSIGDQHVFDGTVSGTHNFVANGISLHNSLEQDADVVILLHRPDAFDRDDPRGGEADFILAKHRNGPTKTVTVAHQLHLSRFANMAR

Protein RecA = target: T2, Protein RecA (Mycobacterium tuberculosis, UniProt P9WHJ3); assay: Fluorescence Cell-Free Homogeneous Dose Retest to Identify Inhibitors of RecA-Intein Splicing Activity. [Related pubchem assays (depositor defined):AID2097, AID2223, AID489010, AID492950]; type: functional
T2 sequence (P9WHJ3 whole entry): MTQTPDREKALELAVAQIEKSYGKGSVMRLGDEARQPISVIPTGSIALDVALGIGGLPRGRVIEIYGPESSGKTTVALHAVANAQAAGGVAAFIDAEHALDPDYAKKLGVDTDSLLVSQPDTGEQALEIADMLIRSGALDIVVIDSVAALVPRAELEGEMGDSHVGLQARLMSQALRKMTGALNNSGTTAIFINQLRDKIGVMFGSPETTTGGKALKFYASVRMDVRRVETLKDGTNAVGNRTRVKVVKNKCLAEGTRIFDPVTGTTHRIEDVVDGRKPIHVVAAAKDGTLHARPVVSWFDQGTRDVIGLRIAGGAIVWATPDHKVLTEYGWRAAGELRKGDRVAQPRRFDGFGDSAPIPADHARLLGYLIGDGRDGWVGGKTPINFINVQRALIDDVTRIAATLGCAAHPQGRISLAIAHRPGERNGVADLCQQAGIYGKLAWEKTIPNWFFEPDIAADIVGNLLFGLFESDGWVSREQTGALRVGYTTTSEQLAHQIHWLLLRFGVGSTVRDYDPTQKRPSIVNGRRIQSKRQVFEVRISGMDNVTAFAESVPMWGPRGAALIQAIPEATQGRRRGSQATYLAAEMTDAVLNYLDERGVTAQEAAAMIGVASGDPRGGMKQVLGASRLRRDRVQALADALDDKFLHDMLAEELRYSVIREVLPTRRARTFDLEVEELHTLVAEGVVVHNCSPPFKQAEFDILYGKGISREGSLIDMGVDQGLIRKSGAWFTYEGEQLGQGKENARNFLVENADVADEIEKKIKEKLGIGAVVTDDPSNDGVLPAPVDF

[2] = target: T3, Sentrin-specific protease 8 (Homo sapiens, UniProt Q96LD8); type: functional
T3 sequence (Q96LD8 whole entry): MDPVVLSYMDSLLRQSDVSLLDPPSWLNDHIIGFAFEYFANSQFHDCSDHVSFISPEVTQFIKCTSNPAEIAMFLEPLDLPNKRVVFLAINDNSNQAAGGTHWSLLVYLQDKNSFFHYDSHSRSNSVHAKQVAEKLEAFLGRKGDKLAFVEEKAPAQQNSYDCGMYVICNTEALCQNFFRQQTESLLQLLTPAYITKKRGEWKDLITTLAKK

[3] = target: T3, Sentrin-specific protease 8; type: functional; remark: listed apart in the source
Caspase-3 = target: T4, Caspase-3 (Homo sapiens, UniProt P42574); assay: Dose-response confirmation of uHTS inhibitor hits of Sentrin-Specific Protease 8 in a Caspase-3 Fluorescence assay.; type: functional
T4 sequence (P42574 whole entry): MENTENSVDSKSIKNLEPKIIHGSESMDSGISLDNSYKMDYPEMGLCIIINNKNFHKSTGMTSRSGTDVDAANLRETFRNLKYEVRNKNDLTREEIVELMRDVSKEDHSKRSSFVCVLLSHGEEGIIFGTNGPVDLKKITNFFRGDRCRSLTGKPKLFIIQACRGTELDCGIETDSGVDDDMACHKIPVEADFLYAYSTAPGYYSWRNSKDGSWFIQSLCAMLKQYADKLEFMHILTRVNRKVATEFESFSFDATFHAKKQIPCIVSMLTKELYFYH

[4] = viability of uninfected HEp-2 cells – cell-based, HTS, cytotoxicity control for RSV inhibitor project, dose response (AID 2410); type: functional; conditions: human respiratory syncytial virus
[5] = target: Endoplasmic reticulum aminopeptidase 1 (Homo sapiens, UniProt Q9NZ08); assay: inhibition of human ERAP1 enzyme activity – biochemical, cherry-pick, set 2, plate reader, dose response (AID 743314)
Major prion protein = Major prion protein (Homo sapiens, UniProt P04156); type: functional, cell-based
cells [6] = assay: cells
Beta-lactamase [7] = target: Beta-lactamase (Salmonella choleraesuis (strain SC-B67), UniProt Q5J463); assay: Epi-absorbance-based counterscreen for selective VIM-2 inhibitors: dose response biochemical high throughput screening assay to identify inhibitors of TEM-1 serine-beta-lactamase.
Beta-lactamase [8] = target: T5, Beta-lactamase (Pseudomonas aeruginosa, UniProt Q79MP6); assay: inhibition of IMP-1 beta-lactamase activity – biochemical, epi-absorbance, selectivity assay for VIM-2 inhibitor project, dose response (AID 1920)
Estrogen receptor = target: T6, Estrogen receptor (Homo sapiens, UniProt P03372);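 further: potency for inhibiting coactivator peptide recruitment to the receptor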
T6 sequence (P03372 whole entry): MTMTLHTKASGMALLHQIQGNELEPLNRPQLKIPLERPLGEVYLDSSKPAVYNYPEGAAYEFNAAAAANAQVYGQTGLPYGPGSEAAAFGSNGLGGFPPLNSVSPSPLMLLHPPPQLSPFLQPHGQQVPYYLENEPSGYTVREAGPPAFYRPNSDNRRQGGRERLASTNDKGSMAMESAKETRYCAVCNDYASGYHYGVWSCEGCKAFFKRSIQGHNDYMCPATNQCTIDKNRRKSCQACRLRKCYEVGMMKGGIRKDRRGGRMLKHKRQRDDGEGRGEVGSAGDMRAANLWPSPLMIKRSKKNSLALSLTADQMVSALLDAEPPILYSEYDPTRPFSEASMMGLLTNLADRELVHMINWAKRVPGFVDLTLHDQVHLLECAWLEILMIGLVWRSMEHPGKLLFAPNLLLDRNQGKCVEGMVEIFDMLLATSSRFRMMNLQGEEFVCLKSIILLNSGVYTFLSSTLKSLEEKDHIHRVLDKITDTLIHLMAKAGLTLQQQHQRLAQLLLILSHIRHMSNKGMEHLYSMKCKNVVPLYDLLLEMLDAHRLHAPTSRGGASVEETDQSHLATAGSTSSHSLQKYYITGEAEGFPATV

Beta-lactamase [9] = target: T5, Beta-lactamase; assay: […] counterscreen for selective VIM-2 inhibitors: dose response biochemical high throughput screening assay to identify inhibitors of IMP-1 metallo-beta-lactamase.
[10] = target: T7, High affinity choline transporter 1 (Homo sapiens, UniProt Q9GZV3); assay: human choline transporter blockers, potency – cell-based, 5-point CRC, membrane potential dye, dose response (AID 504840); type: functional
T7 sequence (Q9GZV3 whole entry): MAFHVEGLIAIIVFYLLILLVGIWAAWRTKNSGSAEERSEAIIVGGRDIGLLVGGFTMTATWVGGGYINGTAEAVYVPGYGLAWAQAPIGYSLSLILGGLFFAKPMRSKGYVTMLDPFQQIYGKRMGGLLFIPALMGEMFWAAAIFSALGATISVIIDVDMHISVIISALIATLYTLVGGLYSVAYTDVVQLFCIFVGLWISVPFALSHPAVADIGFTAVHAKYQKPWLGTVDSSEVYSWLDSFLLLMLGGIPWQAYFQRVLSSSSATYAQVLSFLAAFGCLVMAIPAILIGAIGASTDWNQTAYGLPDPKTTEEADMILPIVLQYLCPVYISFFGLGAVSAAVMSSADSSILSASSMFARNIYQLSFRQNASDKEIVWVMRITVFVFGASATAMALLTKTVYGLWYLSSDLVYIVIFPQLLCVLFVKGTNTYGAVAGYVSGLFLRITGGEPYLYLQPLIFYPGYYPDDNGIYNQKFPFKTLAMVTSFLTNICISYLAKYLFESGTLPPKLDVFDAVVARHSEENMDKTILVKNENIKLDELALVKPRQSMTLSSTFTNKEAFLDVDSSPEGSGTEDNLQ

[11] = target: T7, High affinity choline transporter 1; assay: human choline transporter blockers, potency – cell-based, 10-point CRC, membrane potential dye, dose response (AID 588401); type: functional;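 further: membrane potential dye fluorescence of choline-evoked depolarization via CHT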
[12] = activation of miR-122 Renilla sensor silencing – cell-based, Huh7 psiCHECK-miR122, Renilla luciferase, cherry-picked, dose response (AID 651956); type: functional;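 further: huh7 hepatoma cells stably carrying a psiCHECK-2 miR-122 sensor plasmid; renilla luciferase signal reporting endogenous miR-122 activity after 48 h compound exposure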
[13] = general mammalian cell viability loss – activator set, cherry-pick, cytotoxicity control for miR-122 modulator project, dose response (AID 720690); type: functional, cell-based;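 further: HEK293T human cells scored for general mammalian cytotoxicity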
cells [14] = type: functional, cell-based
[15] = target: T8, Trace amine-associated receptor 1 (Homo sapiens, UniProt Q96RJ0); assay: Fluorescence-based cell-based high throughput dose response assay to identify agonists of the human trace amine associated receptor 1 (TAAR1).; type: functional
[16] = target: T8, Trace amine-associated receptor 1; assay: Counterscreen for agonists of the human trace amine associated receptor 1 (hTAAR1): Fluorescence-based cell-based high throughput dose response assay to identify hTAAR1 agonist that also desensitize TAAR1 receptor response.; type: functional
cells [17] = type: functional, cell-based; remark: listed apart in the source
Galanin receptor type 3 = Galanin receptor type 3 (Homo sapiens, UniProt O60755); assay: Fluorescence-based cell-based primary high throughput dose response assay to identify antagonists of the Galanin Receptor 3 (GalR3).; type: functional
cells [18] = type: functional, cell-based; conditions: HEK-CNG
[19] = A Cell-Based Confirmatory Screen for Compounds that Inhibit VEEV, TC-83 (7).; type: functional
[20] = target: Potassium channel subfamily K member 9 (Homo sapiens, UniProt Q9NPC2); assay: KCNK9 flux blockade, concentration-response – cell-based, FluxOR thallium flux, selectivity assay for TASK1 inhibitor project, SAR follow-up (AID 652211); type: functional;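 further: potency is for inhibitors of the channel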
[21] = target: Potassium voltage-gated channel subfamily KQT member 2 (Rattus norvegicus, UniProt O88943); assay: block of rat KCNQ2 potassium channel – cell-based, FluxOR thallium flux, concentration-response, selectivity assay for TASK1 inhibitor project, SAR follow-up (AID 652192); type: functional
[22] = target: Potassium channel subfamily K member 3 (Homo sapiens, UniProt O14649); assay: inhibition of human KCNK3 channel flux – CHO cells, FluxOR thallium flux, SAR follow-up (AID 652212); type: functional
[23] = Late stage assay provider results from the probe development effort to identify selective inhibitors of heat shock protein 90 (HSP90): Absorbance-based cell proliferation assay in SKBR3 cells.; type: functional; conditions: SK-BR-3
[24] = Late stage assay provider results from the probe development effort to identify selective inhibitors of heat shock protein 90 (HSP90): Absorbance-based cell proliferation assay in MCF7 cells.; type: functional

T5 sequence (Q79MP6 whole entry): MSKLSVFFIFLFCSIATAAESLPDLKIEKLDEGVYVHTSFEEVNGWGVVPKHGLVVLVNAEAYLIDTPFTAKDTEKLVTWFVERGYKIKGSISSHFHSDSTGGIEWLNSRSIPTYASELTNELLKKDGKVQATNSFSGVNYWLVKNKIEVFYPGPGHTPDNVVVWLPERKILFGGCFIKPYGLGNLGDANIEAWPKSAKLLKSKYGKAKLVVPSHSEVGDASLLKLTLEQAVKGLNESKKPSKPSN
T8 sequence (Q96RJ0 whole entry): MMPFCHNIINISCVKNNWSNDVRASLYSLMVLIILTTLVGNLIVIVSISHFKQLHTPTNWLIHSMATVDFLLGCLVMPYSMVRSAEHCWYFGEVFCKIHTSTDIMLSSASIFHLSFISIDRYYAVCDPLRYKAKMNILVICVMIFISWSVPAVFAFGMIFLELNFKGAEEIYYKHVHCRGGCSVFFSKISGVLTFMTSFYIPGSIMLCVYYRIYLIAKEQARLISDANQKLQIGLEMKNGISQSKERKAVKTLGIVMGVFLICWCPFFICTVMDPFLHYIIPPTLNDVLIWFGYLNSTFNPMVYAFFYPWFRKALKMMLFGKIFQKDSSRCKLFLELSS
Chain of Potassium channel subfamily K member 9 (Q9NPC2 whole entry): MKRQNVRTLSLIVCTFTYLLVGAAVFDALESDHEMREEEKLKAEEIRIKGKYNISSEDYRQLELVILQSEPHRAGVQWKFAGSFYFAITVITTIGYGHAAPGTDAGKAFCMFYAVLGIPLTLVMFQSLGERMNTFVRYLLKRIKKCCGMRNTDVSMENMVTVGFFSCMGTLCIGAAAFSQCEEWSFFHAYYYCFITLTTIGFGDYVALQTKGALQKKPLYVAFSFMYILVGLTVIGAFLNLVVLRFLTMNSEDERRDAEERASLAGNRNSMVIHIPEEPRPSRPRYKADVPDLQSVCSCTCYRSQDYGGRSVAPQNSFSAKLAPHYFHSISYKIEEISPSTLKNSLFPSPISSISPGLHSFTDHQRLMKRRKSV
Chain of Galanin receptor type 3 (O60755 whole entry): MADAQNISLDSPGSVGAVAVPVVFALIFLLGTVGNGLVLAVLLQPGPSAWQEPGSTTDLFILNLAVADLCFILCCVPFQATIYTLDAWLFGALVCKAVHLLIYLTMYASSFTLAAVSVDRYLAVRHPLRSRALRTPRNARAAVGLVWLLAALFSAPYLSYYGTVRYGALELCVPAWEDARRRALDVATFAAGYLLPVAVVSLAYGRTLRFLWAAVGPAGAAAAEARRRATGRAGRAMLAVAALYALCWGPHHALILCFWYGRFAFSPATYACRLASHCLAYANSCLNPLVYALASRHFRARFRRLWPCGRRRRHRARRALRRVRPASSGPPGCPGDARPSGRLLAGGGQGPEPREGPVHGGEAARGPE
Chain of Potassium channel subfamily K member 3 (O14649 whole entry): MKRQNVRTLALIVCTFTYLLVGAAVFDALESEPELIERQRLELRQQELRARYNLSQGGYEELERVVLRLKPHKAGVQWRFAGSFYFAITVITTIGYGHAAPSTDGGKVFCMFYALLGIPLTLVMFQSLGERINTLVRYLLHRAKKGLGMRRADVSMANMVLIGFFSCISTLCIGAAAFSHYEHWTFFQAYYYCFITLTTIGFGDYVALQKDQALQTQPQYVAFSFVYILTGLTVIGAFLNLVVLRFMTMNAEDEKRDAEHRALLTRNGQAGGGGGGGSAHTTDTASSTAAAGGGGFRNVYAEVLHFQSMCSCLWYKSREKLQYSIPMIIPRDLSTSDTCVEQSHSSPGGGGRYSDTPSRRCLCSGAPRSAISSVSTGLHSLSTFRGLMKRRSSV
Chain of Potassium voltage-gated channel subfamily KQT member 2 (O88943 whole entry): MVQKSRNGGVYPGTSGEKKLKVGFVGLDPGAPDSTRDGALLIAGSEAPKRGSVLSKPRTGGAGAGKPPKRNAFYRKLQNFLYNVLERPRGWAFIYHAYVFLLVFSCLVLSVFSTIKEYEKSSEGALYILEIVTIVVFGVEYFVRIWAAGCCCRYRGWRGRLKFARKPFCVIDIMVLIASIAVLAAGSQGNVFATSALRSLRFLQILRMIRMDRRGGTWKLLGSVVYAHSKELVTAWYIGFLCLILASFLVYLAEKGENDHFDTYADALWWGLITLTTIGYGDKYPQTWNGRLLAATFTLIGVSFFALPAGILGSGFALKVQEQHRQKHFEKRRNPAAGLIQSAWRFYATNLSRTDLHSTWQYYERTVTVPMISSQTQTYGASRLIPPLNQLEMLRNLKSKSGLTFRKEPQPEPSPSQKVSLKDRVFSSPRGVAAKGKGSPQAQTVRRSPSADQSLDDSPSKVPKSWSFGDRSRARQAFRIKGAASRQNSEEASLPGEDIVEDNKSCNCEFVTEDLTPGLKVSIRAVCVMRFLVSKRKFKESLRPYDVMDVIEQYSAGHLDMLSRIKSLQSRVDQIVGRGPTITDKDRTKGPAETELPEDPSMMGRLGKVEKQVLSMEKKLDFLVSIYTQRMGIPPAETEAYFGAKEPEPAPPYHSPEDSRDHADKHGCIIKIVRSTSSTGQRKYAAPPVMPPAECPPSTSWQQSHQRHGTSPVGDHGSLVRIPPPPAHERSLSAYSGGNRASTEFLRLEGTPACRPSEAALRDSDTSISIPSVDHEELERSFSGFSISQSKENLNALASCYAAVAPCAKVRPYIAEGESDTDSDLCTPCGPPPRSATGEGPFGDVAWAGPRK
Chain of Beta-lactamase (Salmonella choleraesuis (strain SC-B67), UniProt Q5J463) (Q5J463 whole entry): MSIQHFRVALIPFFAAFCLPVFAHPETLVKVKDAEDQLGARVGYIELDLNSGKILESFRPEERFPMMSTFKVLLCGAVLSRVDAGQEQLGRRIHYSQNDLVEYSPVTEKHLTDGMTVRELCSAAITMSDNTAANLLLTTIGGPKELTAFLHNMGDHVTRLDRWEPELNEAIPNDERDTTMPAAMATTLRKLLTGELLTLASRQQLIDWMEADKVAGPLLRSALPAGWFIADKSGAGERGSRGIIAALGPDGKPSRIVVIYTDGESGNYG
Chain of Endoplasmic reticulum aminopeptidase 1 (Q9NZ08 whole entry): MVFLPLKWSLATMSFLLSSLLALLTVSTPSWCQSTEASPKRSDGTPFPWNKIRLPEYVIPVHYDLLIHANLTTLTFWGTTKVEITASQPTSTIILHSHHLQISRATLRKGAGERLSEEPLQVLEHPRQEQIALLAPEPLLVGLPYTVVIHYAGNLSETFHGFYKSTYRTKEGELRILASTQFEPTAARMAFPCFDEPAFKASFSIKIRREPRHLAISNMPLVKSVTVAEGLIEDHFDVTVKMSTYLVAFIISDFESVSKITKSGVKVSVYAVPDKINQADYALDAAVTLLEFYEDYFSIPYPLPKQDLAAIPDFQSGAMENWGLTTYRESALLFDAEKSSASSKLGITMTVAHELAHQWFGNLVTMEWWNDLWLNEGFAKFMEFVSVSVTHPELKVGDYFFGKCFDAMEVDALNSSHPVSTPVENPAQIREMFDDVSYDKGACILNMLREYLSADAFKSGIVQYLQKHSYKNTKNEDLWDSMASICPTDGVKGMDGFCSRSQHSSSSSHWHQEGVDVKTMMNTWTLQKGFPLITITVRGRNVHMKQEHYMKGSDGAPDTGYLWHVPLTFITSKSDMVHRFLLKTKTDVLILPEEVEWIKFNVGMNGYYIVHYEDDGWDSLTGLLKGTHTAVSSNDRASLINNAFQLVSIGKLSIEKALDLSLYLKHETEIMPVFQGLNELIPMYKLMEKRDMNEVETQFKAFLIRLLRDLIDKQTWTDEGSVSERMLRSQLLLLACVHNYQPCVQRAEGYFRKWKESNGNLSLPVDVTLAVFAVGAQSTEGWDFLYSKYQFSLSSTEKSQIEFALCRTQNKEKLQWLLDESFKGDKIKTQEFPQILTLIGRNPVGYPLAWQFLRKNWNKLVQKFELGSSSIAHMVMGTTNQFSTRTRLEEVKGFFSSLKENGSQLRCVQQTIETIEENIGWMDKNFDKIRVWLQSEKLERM

COc1ccc(-c2csc(CCN3N=C(C)CC3=O)n2)cc1
AC50 [1]: 3.27 µM (active)
EC50 (Protein RecA): 1.54 µM (active)
IC50 [2]: 12.1 µM (active)
IC50 [3]: 14.6 µM (active)
IC50 (Caspase-3): 100 µM (inactive)

COc1ccc(-c2cc3ccc(O)cc3oc2=O)cc1
CC50 [4]: 49.4 µM (active)
AC50 [5]: 3.06 µM (active)

COc1ccc(/C=C\C(=O)NCc2ccc3c(c2)cc(C)n3C)cc1OC
IC50 (Major prion protein): 40.3 µM (inactive)
IC50 (cells [6]): > 138 µM (inactive)

Cn1ccnc1SCC(=O)Nc1ccc2nc(SCC(=O)NC3CC3)sc2c1
IC50 (Beta-lactamase [7]): > 59.6 µM (inactive)
IC50 (Beta-lactamase [8]): > 59.6 µM (inactive)
IC50 (Estrogen receptor): 25.7 µM (active)
IC50 (Beta-lactamase [9]): > 59.6 µM (inactive)
IC50 [10]: 4.29 µM (active)
IC50 [11]: 0.843 µM (active)

C[C@@H]1CCCCO[C@H](CN(C)CC2CCCCC2)[C@H](C)CN([C@@H](C)CO)C(=O)c2cc(NC(=O)Nc3ccc(C(F)(F)F)cc3)ccc2O1
AC50 [12]: 2.85 µM (active)
AC50 [13]: 4.83 µM (active)

CC(C)[C@H](NC(=O)C1CCCC1)C(=O)N1CCC[C@H]1C(=O)NCCc1ccccc1Cl
IC50 (cells [14]): > 29.9 µM (inactive)
EC50 [15]: 0.897 µM (active)
IC50 [16]: 3.8 µM (active)
EC50 (cells [17]): > 29.9 µM (inactive)

Cc1cc(Br)cn2c(Cc3ccccc3C(F)(F)F)c(-c3ccco3)nc12
IC50 (Galanin receptor type 3): 14.5 µM (inactive)
EC50 (cells [18]): > 29.9 µM (inactive)

CN1CCN(C)/C(=N/c2ccc([N+](=O)[O-])cc2C(=O)Nc2ccccc2F)C1
IC50 [19]: 0.15 µM (active)

COc1cnccc1C(=O)Nc1cccc(NC(=O)c2cccc(C)c2)c1
IC50 [20]: 2.43 µM (active)
IC50 [21]: 7.58 µM (active)
IC50 [22]: 0.18 µM (active)

Cc1c(N/C=C2/C=C(Br)C(=O)OC2=O)c(=O)n(-c2ccccc2)n1C
IC50 [23]: 16 µM (inactive)
IC50 [24]: 3 µM (active)
